This passage reports CC50 results from article PMC8791944, “GLUT3 inhibitor discovery through in silico ligand screening and in vivo validation in eukaryotic expression systems” (Scientific Reports, 2022).

For the data set, the system named is MCF7 (breast cancer) cells. The experiment in a line: MTT cancer cell viability assay, MCF7. To be noted: MCF7, 48 h. Type of data set: cell-based. On the procedure: A possible therapeutic application of GLUT3 inhibitors is in oncology, especially for cancers in which GLUT3 is a poor prognosis marker. We tested the effect of GLUT3 inhibitors on the cell viability of several different cancer lines: myeloid leukemia (HL60 and U937), lung cancer (A549), colorectal adenocarcinoma (Caco-2), breast cancer (MCF7), hepatocellular carcinoma (HepG2), and choriocarcinoma (BeWo) cells. GLUT3 inhibitors, at five different concentrations, ranging from 2 to 100 µM, were incubated with cancer cells for 48 h. Then, cell viability was assessed with the MTT assay. […] G3iC and G3iD also affected the leukemia cell lines but at double the concentrations of G3iB and G3iE. […] G3iB had some cytotoxic activity (CC50 < 50 µM) against the highest number of cancer cell lines (HL60, U937, A549, HepG2, and MCF7).
Cancer cell viability in the presence of GLUT3 inhibitors was assayed using the MTT Cell Viability Kit (Biotium Inc, Freemont, CA) according to manufacturer’s instructions. Cancer cells were grown in the corresponding medium, at 37 °C and 5% CO2 in a humidified incubator. The media (Gibco) for leukemia cells (HL60 and U937), A549, MCF7, BeWo, and HepG2 cells were RPMI 1640, Ham’s F-12K, DMEM:F-12, Ham’s F-12K, and EMEM, respectively, all supplemented with 10% (v/v) fetal bovine serum (HyClone). Caco-2 cells were grown in EMEM supplemented with 20% (v/v) fetal bovine serum. Cells were detached from the culture flasks with Accutase (Innovative Cell Technologies, Inc., San Diego, CA) according to manufacturer’s instructions. Cells were seeded in 96-well plates, at a density of ~ 30,000 cells/well (in 100 µl fresh media) and incubated with varying concentrations of GLUT3 inhibitors for 48 h, at 37 °C and 5% CO2 in a humidified incubator. The inhibitors were dissolved in DMSO, at 100× the final concentration, so that 1 µl of the stock inhibitor concentration was added per well, making the final DMSO concentration 1% (v/v). Therefore, controls for 100% cell viability were cells with 1% (v/v) DMSO without the inhibitors. Controls for 0% cell viability were cells treated with 0.3% (v/v) Tween 20. For MTT assay, 10 µl of MTT reagent was added in each well followed by 3–4 h incubation at 37 °C and 5% CO2 in a humidified incubator. After thoroughly mixing in 200 µl DMSO in each well, the plates were put into a plate reader (BioTek Synergy H1), and the absorbances at 570 nm and 630 nm were measured with Gen5 program (BioTek Inc.). The experimental values represent Abs570 nm-Abs630 nm with each inhibitor condition and control being the average of three wells.
Supplementary Figure S8. Effect of GLUT3 inhibitors on the viability of various cancer cell lines. Cell viability was determined by MTT assay in A549 (lung cancer), BeWo (choriocarcinoma), Caco-2 (colon cancer), HepG2 (liver cancer), HL-60 (leukemia), MCF7 (breast cancer), and U937 (histiocytic lymphoma) cell lines. GLUT3 inhibitors at concentrations of 2, 5, 10, 20, 50, and 100 µM were incubated with cells in 96-well plates for 48 hours before the addition of the MTT reagent.

The CC50 is the concentration giving 50% cytotoxicity. On to `COc1ccccc1-n1c(/C=C/c2ccc(O)cc2)nc2ccc(Br)cc2c1=O` [G3iB, 6-bromo-2-[(E)-2-(4-hydroxyphenyl)ethenyl]-3-(2-methoxyphenyl)quinazolin-4(3H)-one], for which the 50% cytotoxic concentration (CC50) worked out at 42.6 ± 4.2 µM. In addition, under “Homo sapiens”, the CC50 was less than 50 µM.
On to `Cc1cccnc1OC1CCN(c2cc(N3CCCC3CO)ncn2)CC1` (stereo not shown) [G3iC], for which the 50% cytotoxic concentration (CC50) (Homo sapiens) is more than 50 µM.
Regarding `Cc1ccccc1CN(Cc1nnc(C(C)(C)C)o1)c1ccc2nc(O)[nH]c2c1` [G3iF], under “Homo sapiens”, the 50% cytotoxic concentration (CC50) is more than 100 µM.
As for `CC(=O)Nc1ccc(S(=O)(=O)Nc2ccc(Nc3cc(N(C)C)nc(C)n3)cc2)cc1` [G3iA, N-(4-{[(4-{[6-(dimethylamino)-2-methylpyrimidin-4-yl]amino}phenyl)amino]sulfonyl}phenyl)acetamide], under “Homo sapiens”, the half-maximal cytotoxic concentration (CC50) was more than 100 µM.
For `O=C(Nc1cccc(Cl)c1)c1cccc(NC(=O)c2cccc([N+](=O)[O-])c2)c1` [G3iE, N-{3-[(3-chloroanilino)carbonyl]phenyl}-3-nitrobenzamide], the CC50 (Homo sapiens) is more than 100 µM.
Consider `Cc1cc(NC(=O)CCC2Cc3ccccc3NC2=O)nc(-c2ccccc2)n1` (stereo not shown) [G3iD], for which, where the note is “Homo sapiens”, the CC50 was more than 50 µM.
